Laboratory results taken from the supplement of paper PMC10307832.

Columns and labels:
Assay in all cases: relative viability (nuclei count vs DMSO), 5 days (fraction); higher = more cells survive
Salubrinal + Pemetrexed = compound: O=C(/C=C/c1ccccc1)NC(NC(=S)Nc1cccc2cccnc12)C(Cl)(Cl)Cl [Salubrinal] + Nc1nc2[nH]cc(CCc3ccc(C(=O)N[C@@H](CCC(=O)O)C(=O)O)cc3)c2c(=O)[nH]1 [Pemetrexed] (partner 0.2 µM)
In short: (§1)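 The day after seeding in 1536-well plates, lung cancer cell lines were treated by pin tool with a single drug, or with a fixed anchor-drug dose together with five library-drug doses (not always all listed) in √10 steps. After 5 days, a combined fix-and-stain solution (final 0.05% Triton X-100, 1% formaldehyde, 1 ug/ml Hoechst) was added. Nuclei counted on 4× images gave relative viability as treated counts over vehicle counts, reported as the median of duplicate plates.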

[1] = compound: Cc1ccc2nc(NCCN)c3ncc(C)n3c2c1 + COc1cccc2cc(-c3nc([C@H]4CC[C@H](C(=O)O)CC4)n4ncnc(N)c34)[nH]c12 [OSI-027] (partner 0.5 µM)
In short: as §1

Salubrinal = compound: O=C(/C=C/c1ccccc1)NC(NC(=S)Nc1cccc2cccnc12)C(Cl)(Cl)Cl [Salubrinal]
In short: (§2)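 Vehicle-anchored 1536-well plates of lung cancer cell lines, held overnight at 37 °C, were pinned with five library-drug doses (not always all listed) spaced by √10. No medium change followed over the next 5 days, after which the cells were fixed, permeabilised and Hoechst-stained together and imaged at 4×. Nuclei were counted with MetaXpress, and viability is treated-well nuclei over vehicle-well nuclei, taken as a median across plates. Plates passed with control CV below 25% and at least one doubling.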

[2] = compound: Cc1ccc2nc(NCCN)c3ncc(C)n3c2c1
In short: as §2

| Cell Line | relative viability (Salubrinal + Pemetrexed; first compound 0.08 µM) | relative viability (Salubrinal + Pemetrexed; first compound 0.253 µM) | relative viability (Salubrinal + Pemetrexed; first compound 0.8 µM) | relative viability (Salubrinal + Pemetrexed; first compound 2.53 µM) | relative viability (Salubrinal + Pemetrexed; first compound 8 µM) | relative viability ([1]; first compound 0.04 µM) | relative viability ([1]; first compound 0.1265 µM) | relative viability ([1]; first compound 0.4 µM) | relative viability ([1]; first compound 1.265 µM) | relative viability ([1]; first compound 4 µM) | relative viability (Salubrinal; 0.08 µM) | relative viability (Salubrinal; 0.253 µM) | relative viability (Salubrinal; 0.8 µM) | relative viability (Salubrinal; 2.53 µM) | relative viability (Salubrinal; 8 µM) | relative viability ([2]; 0.04 µM) | relative viability ([2]; 0.1265 µM) | relative viability ([2]; 0.4 µM) | relative viability ([2]; 1.265 µM) | relative viability ([2]; 4 µM) |
| --- | --- | --- | --- | --- | --- | --- | --- | --- | --- | --- | --- | --- | --- | --- | --- | --- | --- | --- | --- | --- |
| PC-14 | 0.114 | 0.154 | 0.147 | 0.124 | 0.108 | 0.882 | 0.819 | 0.979 | 0.759 | 0.388 | 1.11 | 0.96 | 1.13 | 1 | 0.862 | 1.04 | 0.963 | 0.927 | 0.917 | 0.671 |
| RERF-LC-KJ | 0.458 | 0.496 | 0.501 | 0.446 | 0.415 | 0.596 | 0.639 | 0.566 | 0.604 | 0.52 | 1.05 | 1.02 | 1.04 | 0.98 | 0.888 | 1.03 | 0.996 | 0.93 | 0.938 | 0.823 |
| SK-LU-1 | 0.994 | 0.721 | 1.02 | 0.886 | 0.94 | 0.371 | 0.369 | 0.376 | 0.376 | 0.361 | 1.11 | 0.905 | 1.19 | 1.11 | 0.878 | 1.06 | 1 | 1.03 | 1.05 | 0.976 |
| SK-MES-1 | 0.993 | 0.784 | 1.11 | 0.896 | 0.914 | 0.66 | 0.659 | 0.59 | 0.668 | 0.632 | 1.14 | 0.997 | 1.09 | 0.988 | 0.945 | 1.05 | 1.01 | 0.984 | 1.01 | 0.992 |
| SW 900 | 0.508 | 0.423 | 0.505 | 0.485 | 0.468 | 0.453 | 0.661 |  | 0.465 | 0.553 | 1.06 | 0.718 | 0.941 | 0.933 | 1.04 | 0.878 | 0.897 | 0.584 | 0.779 | 0.941 |
| SW 1573 | 0.952 | 0.586 | 0.941 | 0.69 | 0.742 | 0.737 | 0.579 | 0.711 | 0.634 | 0.409 | 1.07 | 1.05 | 1.03 | 0.998 | 0.994 | 0.989 | 1.02 | 1 | 1.05 | 0.776 |
